Molecules are shown by their SMILES.

The test system of the assay is T.b. brucei (strain 427) bloodstream form parasites. Description: T.b. brucei single concentration screen (10 μM). The settings on record: Trypanosoma brucei, read-out: T.b.brucei % viability (10 µM).
Usually viability stands for a read-out of living cells in per cent, often relative to untreated cells. Take `Nc1c2c(nc3sc4c(c13)CCCC4)CCCC2` [MMV676588, Nc1c2CCCCc2nc3sc4CCCCc4c13]: the viability at 10 µM stood at 99%. To `O=C(CCC1CCCCC1)Nc1cccc(-c2nnc(-c3ccco3)o2)c1` [MMV676589, O=C(CCC1CCCCC1)Nc2cccc(c2)c3oc(nn3)c4occc4] belongs 95%; to `CCCn1nnc(NC(=O)COc2ccc(C3CCCCC3)cc2)n1` [MMV676597, CCCn1nnc(NC(=O)COc2ccc(cc2)C3CCCCC3)n1], 71%. As to `CC(C)(C)n1nc(Cc2cccc3ccccc23)c2c(N)ncnc21` [MMV676599, CC(C)(C)n1nc(Cc2cccc3ccccc23)c4c(N)ncnc14], the viability at 10 µM came to 87%. For `CC1COC2(CCN(c3nc(=O)c4cc(C(F)(F)F)cc([N+](=O)[O-])c4s3)CC2)O1` (stereo not shown) [MMV676603, CC1COC2(CCN(CC2)C3=NC(=O)c4cc(cc(c4S3)[N+](=O)[O-])C(F)(F)F)O1], the viability at 10 µM was 82%. As for `C[C@]1(O)C[C@@H](c2nc(-c3ccc4ccc(-c5ccccc5)nc4c3)c3c(N)nccn32)C1` [MMV676605, C[C@@]1(O)C[C@@H](C1)c2nc(c3ccc4ccc(nc4c3)c5ccccc5)c6c(N)nccn26], the viability at 10 µM turned out to be 67%. The figure for `O=C(c1ccc(NCCO)cc1)C1C[C@H]1c1ccc(Cl)cc1` (stereo partly shown) [MMV676877, OCCNc1ccc(cc1)C(=O)C2C[C@H]2c3ccc(Cl)cc3] is 102%; for `CCn1cnc2c(Nc3cc(F)cc(F)c3)nc(C#N)nc21` [MMV676881, CCn1cnc2c(Nc3cc(F)cc(F)c3)nc(nc12)C#N] it is 70%; for `NC(=O)c1cc(-c2ccsc2)ccc1OCCOc1ccccc1` [MMV687138, NC(=O)c1cc(ccc1OCCOc2ccccc2)c3ccsc3] it is 104%.

For the compound `CCCCS(=O)(=O)Nc1ccc2cnn(C)c2c1` [MMV687145, CCCCS(=O)(=O)Nc1ccc2cnn(C)c2c1], the viability at 10 µM amounted to 95%. As for `Cc1cc(C)c2cc(C(=O)NC3CCCCCCC3)[nH]c2c1` [MMV687146, Cc1cc(C)c2cc([nH]c2c1)C(=O)NC3CCCCCCC3], the viability at 10 µM is 92%. With `COc1ccc(Cn2cnc3c(-c4ccco4)nc(Cl)nc32)cc1` [MMV687170, COc1ccc(Cn2cnc3c(nc(Cl)nc23)c4occc4)cc1], the viability at 10 µM is 97%.

Turning to `O=C(C1CCN(c2cc(-n3cccc3)ncn2)CC1)N1CCc2ccccc2C1` [MMV687172, O=C(C1CCN(CC1)c2cc(ncn2)n3cccc3)N4CCc5ccccc5C4], the viability at 10 µM was determined as 93%.

As for `CCc1ccc([C@@H]2C[C@H](C(F)(F)F)n3ncc(C(=O)NCc4ccc(OC)cc4)c3N2)cc1` [MMV687180, CCc1ccc(cc1)[C@@H]2C[C@@H](n3ncc(C(=O)NCc4ccc(OC)cc4)c3N2)C(F)(F)F], the viability at 10 µM came out at 57%.

On to `COc1ccc2nc(C)cc(OCC(=O)Nc3ccccc3OC)c2c1` [MMV687188, COc1ccc2nc(C)cc(OCC(=O)Nc3ccccc3OC)c2c1], for which the viability at 10 µM was 92%.

In the case of `COc1ccc2nc(C)cc(OCC(=O)NCc3ccccc3)c2c1` [MMV687189, COc1ccc2nc(C)cc(OCC(=O)NCc3ccccc3)c2c1], the viability at 10 µM was found to be 92%.

In the case of `CC(C)(C(=O)Nc1ccc(F)cc1)n1cc(-c2ccccc2F)cn1` [MMV687239, CC(C)(C(=O)Nc1ccc(F)cc1)n2cc(cn2)c3ccccc3F], the viability at 10 µM was found to be 89%. Take `NC(=O)c1cc(Br)ccc1OCCOc1ccccc1` [MMV687243, NC(=O)c1cc(Br)ccc1OCCOc2ccccc2]: the viability at 10 µM amounted to 92%. In the case of `CN1CCN(S(=O)(=O)c2ccc(-c3ccc4c(Nc5ccc6nn[nH]c6c5)ccnc4c3)cc2)CC1` [MMV687246, CN1CCN(CC1)S(=O)(=O)c2ccc(cc2)c3ccc4c(Nc5ccc6nn[nH]c6c5)ccnc4c3], the viability at 10 µM is 106%. With `Cn1c(=O)c2c(S(C)(=O)=O)snc2n(C)c1=O` [MMV687251, CN1C(=O)N(C)c2nsc(c2C1=O)S(=O)(=O)C], the viability at 10 µM is 98%. Regarding `CCCCc1ccc(C(=O)Nc2nccc3ccccc23)nc1` [MMV687254, CCCCc1ccc(nc1)C(=O)Nc2nccc3ccccc23], the viability at 10 µM worked out at 81%. Turning to `CCc1nc2ccc(Cl)cn2c1C(=O)NCc1ccc(N2CCC(c3ccc(OC(F)(F)F)cc3)CC2)cc1` [MMV687696, CCc1nc2ccc(Cl)cn2c1C(=O)NCc3ccc(cc3)N4CCC(CC4)c5ccc(OC(F)(F)F)cc5], the viability at 10 µM was 99%. With `O=C(NCc1cc(Cl)cc(Cl)c1)c1c(C(F)(F)F)nc2ccccn12` [MMV687699, FC(F)(F)c1nc2ccccn2c1C(=O)NCc3cc(Cl)cc(Cl)c3], the viability at 10 µM was 99%. In the case of `Nc1ncnc2c1ncn2[C@@H]1O[C@H](COS(=O)(=O)NC(=O)c2ccccc2O)[C@@H](O)[C@H]1O` [MMV687700, Nc1ncnc2c1ncn2[C@@H]3O[C@H](COS(=O)(=O)NC(=O)c4ccccc4O)[C@@H](O)[C@H]3O], the viability at 10 µM was determined as 104%.

Consider `O=C1O[C@@H](CO)CN1c1cc(F)c(C2=CCN(Cc3ccccc3)CC2)c(F)c1` [MMV687729, OC[C@H]1CN(C(=O)O1)c2cc(F)c(C3=CCN(Cc4ccccc4)CC3)c(F)c2], for which the viability at 10 µM was determined as 101%. To `CCCCOC(=O)Nc1cc2nc(C3CCCCC3)[nH]c2cc1N1CCCC1` [MMV687730, CCCCOC(=O)Nc1cc2nc([nH]c2cc1N3CCCC3)C4CCCCC4] belongs 61%; to `Cc1cc(OCC(=O)NCc2ccccc2)c2cc(Br)ccc2n1` [MMV687747, Cc1cc(OCC(=O)NCc2ccccc2)c3cc(Br)ccc3n1], 89%; to `c1ccc(C[C@@H]2CN(c3nccc(Oc4ccc(-n5ccnc5)cc4)n3)CCN2)cc1` [MMV687749, C([C@@H]1CN(CCN1)c2nccc(Oc3ccc(cc3)n4ccnc4)n2)c5ccccc5], 60%.

For the compound `CC1(C)OB(O)c2ccc(C3=NOC(c4cc(Cl)c(F)c(Cl)c4)(C(F)(F)F)C3)cc21` (stereo not shown) [MMV687775, CC1(C)OB(O)c2ccc(cc12)C3=NOC(C3)(c4cc(Cl)c(F)c(Cl)c4)C(F)(F)F], the viability at 10 µM turned out to be 33%. With `CC1(C)Cc2c(c(N3CCOCC3)nc3snc(Br)c23)CO1` [MMV687794, CC1(C)Cc2c(CO1)c(nc3snc(Br)c23)N4CCOCC4], the viability at 10 µM worked out at 50%. Take `O=C1O[C@@H](COc2ccon2)CN1c1cc(F)c(C2=CCN(Cc3ccccc3)CC2)c(F)c1` [MMV687813, Fc1cc(cc(F)c1C2=CCN(Cc3ccccc3)CC2)N4C[C@H](COc5ccon5)OC4=O]: the viability at 10 µM came to 113%. As for `Cc1cccc(-c2nc(Nc3ccncn3)c3sccc3n2)n1` [MMV688122, Cc1cccc(n1)c2nc(Nc3ccncn3)c4sccc4n2], the viability at 10 µM came to 85%. To `CCc1ccc(S(=O)(=O)Nc2cc(CN3CCN(CCC(C)C)CC3)ccc2C)cc1` [MMV688124, CCc1ccc(cc1)S(=O)(=O)Nc2cc(CN3CCN(CCC(C)C)CC3)ccc2C] belongs 84%; to `CCCc1ccc(S(=O)(=O)Nc2ccc(CN3CCN(CC4CC4)CC3)cc2)cc1` [MMV688125, CCCc1ccc(cc1)S(=O)(=O)Nc2ccc(CN3CCN(CC4CC4)CC3)cc2], 72%. In the case of `c1ccc(Oc2ccc(-c3cncc(-c4ccc5[nH]ccc5c4)n3)cc2)cc1` [MMV688178, O(c1ccccc1)c1ccc(cc1)-c1cncc(n1)-c1ccc2[nH]ccc2c1], the viability at 10 µM is 101%. The figure for `CC1(COc2ccc(N3CCC(Oc4ccc(OC(F)(F)F)cc4)CC3)cc2)Cn2cc([N+](=O)[O-])nc2O1` (stereo not shown) [MMV688262, CC1(COc2ccc(cc2)N3CCC(CC3)Oc4ccc(OC(F)(F)F)cc4)Cn5cc(nc5O1)N(=O)=O] is 74%.

As for `COc1ccc(-c2cnc3cnc(-c4cccc(OC(C)C)c4)cn23)cc1` [MMV688270, COc1ccc(cc1)-c1cnc2cnc(cn12)-c1cccc(OC(C)C)c1], the viability at 10 µM turned out to be 99%.

As to `Nc1ccc2ncnc(Nc3ccc(OCc4cccc(F)c4)c(Cl)c3)c2c1` [MMV688273, Nc1ccc2ncnc(Nc3ccc(OCc4cccc(F)c4)c(Cl)c3)c2c1], the viability at 10 µM is 56%. For `O=C(CN1CCOCC1)Nc1ccc2ncnc(Nc3ccc(OCc4cccc(F)c4)c(Cl)c3)c2c1` [MMV688274, Fc1cccc(COc2ccc(Nc3ncnc4ccc(NC(=O)CN5CCOCC5)cc34)cc2Cl)c1], the viability at 10 µM came out at 63%. The figure for `COc1ccc(-c2nnc3ccc(-c4cccc(C(C)C)c4)cn23)cc1OC` [MMV688313, COc1ccc(cc1OC)-c1nnc2ccc(cn12)-c1cccc(c1)C(C)C] is 92%; for `CC(=O)NCC1CN(c2ccc(-c3ccc(CNCc4cn[nH]n4)cc3)c(F)c2)C(=O)O1` (stereo not shown) [MMV688327, CC(=O)NCC1CN(C(=O)O1)c2ccc(c(F)c2)c3ccc(CNCc4cn[nH]n4)cc3] it is 68%; for `CC(=O)N1CCN(c2ccc(Oc3ccc(Cl)cc3O)cc2)CC1` [MMV688330, CC(=O)N1CCN(CC1)c1ccc(Oc2ccc(Cl)cc2O)cc1] it is 103%.

As for `Nc1nc(N)c2c3c(sc2n1)CN(Cc1ccccc1)CC3` [MMV688345, Nc1nc(N)c2c3CCN(Cc4ccccc4)Cc3sc2n1], the viability at 10 µM was determined as 110%.

Take `COC(=O)c1ccc(F)cc1NS(=O)(=O)c1cccc(-c2cnn(Cc3ccccc3)c2)c1` [MMV688350, COC(=O)c1ccc(F)cc1NS(=O)(=O)c2cccc(c2)c3cnn(Cc4ccccc4)c3]: the viability at 10 µM was found to be 85%. For `O=C1[C@@H](Oc2ccccc2)[C@@H](c2ccc(Cl)cc2)N1CCn1cnc2c(NCc3ccccc3)ncnc21` [MMV688352, Clc1ccc(cc1)[C@@H]2[C@H](Oc3ccccc3)C(=O)N2CCn4cnc5c(NCc6ccccc6)ncnc45], the viability at 10 µM is 107%. Turning to `c1cc(C2=NCCN2)cc(-c2cc(-c3ccc(C4=NCCN4)cc3)no2)c1` [MMV688361, C1CN=C(N1)c2ccc(cc2)c3cc(on3)c4cccc(c4)C5=NCCN5], the viability at 10 µM worked out at 18%.

On to `COc1cc(C2=NCCN2)cc2cc(-c3ccc(C4=NCCN4)cc3)oc12` [MMV688362, COc1cc(cc2cc(oc12)c3ccc(cc3)C4=NCCN4)C5=NCCN5], for which the viability at 10 µM turned out to be 35%.

`CC(C)(C)OC(=O)N1CCC(Cn2nc(-c3cnc4ccccc4c3)c3c(N)ncnc32)CC1` [MMV688364, CC(C)(C)OC(=O)N1CCC(Cn2nc(-c3cnc4ccccc4c3)c3c(N)ncnc23)CC1]: the viability at 10 µM amounted to 102%. To `COc1cc(C2=NCCN2)ccc1-c1cn(-c2cccc(C3=NCCN3)c2)nn1` [MMV688407, COc1cc(ccc1c2cn(nn2)c3cccc(c3)C4=NCCN4)C5=NCCN5] belongs 87%.

For the origin of these results see article PMC6301270 (MedChemComm, 2018).
